Where a SMILES comes first, the peptide text is derived from it. [ ]: non-standard residue; d: D form. The star is where a group is joined. ξ: configuration not given here. Biotinyl(4ξ) = O=C1N[C@H]2CSC(CCCCC(=O)*)[C@H]2N1; pY = N[C@@H](Cc1ccc(OP(=O)(O)O)cc1)C(=O)O; ξIle = CC[C@H](C)C(N)C(=O)O
Assays:
[1] = tested on: cyclin D1 and c-Myc; assay: Wnt3A-induced cyclin D1 and c-Myc expression, Western blotting; format: cell-based; conditions: HEK293T; pretreated one hour; Wnt3A 30 ng/mL two hours; FIG. 9
Method: HEK293T cells were collected and washed with ice-cold PBS, and dissolved with RIPA buffer (50 mM Tris-HCl (pH7.4), 150 mM NaCl, 1% Nonidet P-40, 0.25% NaN3, 1 mM EDTA, 1 mM PMSF, 1 μg/mL aprotinin, 1 μg/mL leupeptin, 1 μg/mL pepstatin, 1 mM sodium orthovanadate, and 1 mM NaF). The cell lysate was centrifuged at 13,475×g for 20 minutes and the supernatant was analyzed for protein concentration using the BCA Protein Assay Kit (Pierce; Rockford, USA). Proteins of the cell lysate were run on SDS-PAGE and transferred to a PVDF membrane (Millipore; Billerica, USA). Anti-RhoA ( 1/500), anti-actin (Santa Cruz; Dallas, Calif.), anti-GSK-3β( 1/500), anti-phospho (Ser9)-GSK-3β( 1/500) (both Cell Signaling, Beverly, USA), anti-O-catenin ( 1/1000) (Invitrogen, Carlsbad, USA), anti-active β-catenin ( 1/500) (Millipore, Billerica, USA), and anti-Tau ( 1/500) (Biosource; Camarillo, Calif.) antibodies were incubated with PVDF membranes at room temperature for 2 hours, and then each was washed 3 times for 5 minutes. […] The strength of the band was quantified with the ImageJ program of the U.S. National Institutes of Health (Bethesda, USA).

[2] = tested on: macrophage cell line RAW264.7; assay: Wnt3A-mediated cell proliferation, fluorescence microscopy; format: cell-based, mouse; conditions: Tat-C3 1 μg/mL, Y27632 10 μM pretreated one hour; Wnt3A 30 ng/mL two days; FIG. 7
Method: (§1) All cells tested were cultured in Dulbecco's Modified Eagle Medium (DMEM; Weljin, Gyeongsan) containing 5% fetal bovine serum (FBS; GIBCO, Carlsbad, USA) and 1% penicillin-streptomycin (complete medium) under 5% CO2 at 37° C.

[3] = tested on: HEK293T cells; assay: Wnt3A-induced cell proliferation, fluorescence microscopy; format: cell-based; conditions: Tat-C3 1 μg/mL, Y27632 10 μM pretreated one hour; Wnt3A 30 ng/mL two days; FIG. 6
Method: as §1

[4] = tested on: HEK293T cells; assay: MTT proliferation with stimulants (FIG. 37); format: cell-based; conditions: pre-incubated one hour, stimulant 48 hours
Method: (§2) The MTT assay was performed to measure the proliferation of various cancer cell lines, such as HEK293T, LN18 glioma, HepG2 liver cancer, AGS gastric cancer, and A549 lung cancer cells.

[5] = tested on: HepG2 cells; assay: MTT proliferation with stimulants (FIG. 37); format: cell-based; conditions: pre-incubated one hour, stimulant 48 hours
Method: as §2

[6] = tested on: LN18 cells; assay: MTT proliferation with stimulants (FIG. 37); format: cell-based; conditions: pre-incubated one hour, stimulant 48 hours
Method: as §2

[7] = tested on: A549 cells; assay: MTT proliferation with stimulants (FIG. 37); format: cell-based; conditions: pre-incubated one hour, stimulant 48 hours
Method: as §2

[8] = target: T1, p-Tyr42 RhoA and β-catenin (Homo sapiens, UniProt P35222); assay: Co-immunoprecipitation of p-Tyr42 RhoA with β-catenin after Wnt3A; format: cell-based; conditions: cells pretreated with inhibitor, then Wnt3A; FIGS. 20 and 21
T1 construct: endogenous in cells
T1 sequence (P35222 2-781 limits assumed): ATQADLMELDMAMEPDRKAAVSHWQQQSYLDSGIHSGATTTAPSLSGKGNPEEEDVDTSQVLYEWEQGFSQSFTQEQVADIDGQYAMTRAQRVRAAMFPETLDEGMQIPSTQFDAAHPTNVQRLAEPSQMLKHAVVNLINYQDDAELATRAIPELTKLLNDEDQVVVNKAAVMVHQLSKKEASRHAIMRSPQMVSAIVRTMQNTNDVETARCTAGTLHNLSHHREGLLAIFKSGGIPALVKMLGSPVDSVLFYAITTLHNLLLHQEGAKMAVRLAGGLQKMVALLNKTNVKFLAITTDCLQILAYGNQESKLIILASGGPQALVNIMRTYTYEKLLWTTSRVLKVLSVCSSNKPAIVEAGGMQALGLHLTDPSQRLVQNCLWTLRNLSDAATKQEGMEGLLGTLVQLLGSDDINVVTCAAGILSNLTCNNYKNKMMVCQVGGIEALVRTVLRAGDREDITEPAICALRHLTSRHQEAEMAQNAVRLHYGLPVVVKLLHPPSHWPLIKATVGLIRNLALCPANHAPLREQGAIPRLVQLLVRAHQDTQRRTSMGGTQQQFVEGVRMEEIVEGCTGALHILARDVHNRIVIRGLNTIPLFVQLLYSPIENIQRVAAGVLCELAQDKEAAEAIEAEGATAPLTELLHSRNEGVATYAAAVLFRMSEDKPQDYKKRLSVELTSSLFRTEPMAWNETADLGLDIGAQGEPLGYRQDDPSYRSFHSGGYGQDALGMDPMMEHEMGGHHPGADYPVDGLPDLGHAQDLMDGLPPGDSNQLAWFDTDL
Method: HEK293T cells were collected and washed with ice-cold PBS, and dissolved with RIPA buffer (50 mM Tris-HCl (pH7.4), 150 mM NaCl, 1% Nonidet P-40, 0.25% NaN3, 1 mM EDTA, 1 mM PMSF, 1 μg/mL aprotinin, 1 μg/mL leupeptin, 1 μg/mL pepstatin, 1 mM sodium orthovanadate, and 1 mM NaF). The cell lysate was centrifuged at 13,475×g for 20 minutes and the supernatant was analyzed for protein concentration using the BCA Protein Assay Kit (Pierce; Rockford, USA). Proteins of the cell lysate were run on SDS-PAGE and transferred to a PVDF membrane (Millipore; Billerica, USA). Anti-RhoA ( 1/500), anti-actin (Santa Cruz; Dallas, Calif.), anti-GSK-3β( 1/500), anti-phospho (Ser9)-GSK-3β( 1/500) (both Cell Signaling, Beverly, USA), anti-O-catenin ( 1/1000) (Invitrogen, Carlsbad, USA), anti-active β-catenin ( 1/500) (Millipore, Billerica, USA), and anti-Tau ( 1/500) (Biosource; Camarillo, Calif.) antibodies were incubated with PVDF membranes at room temperature for 2 hours, and then each was washed 3 times for 5 minutes. Thereafter, the membrane was incubated for 1 hour with anti-rat IgG antibody or anti-mouse IgG antibody conjugated with horse radish peroxidase (HRP) (both provided by ENZO Life Science; Farmingdale, USA, 1/1000 dilution) and each was washed later three times for 10 minutes. The membrane was incubated with an enhanced chemiluminescence (ECL) reagent (Amersham; Uppsala, Sweden) and then exposed to an X-ray film. The strength of the band was quantified with the ImageJ program of the U.S. National Institutes of Health (Bethesda, USA).
1×10^7 Cells were washed with 1×PBS, and the cell lysate was prepared using cell lysis buffer (20 mM Tris pH 7.4, 120 mM NaCl, and 1% Nonidet P-40) containing 10 μg/mL each of leupeptin and aprotinin and each of NaF, Na3VO4, PMSF and 5 mM MgCl2. The lysate was used for immunoprecipitation by specific antibodies. […]

[9] = tested on: HEK293T cells; assay: Cell migration by wound healing method in response to Wnt3A; format: cell-based; conditions: 1 μM, Wnt3A 30 ng/ml, 48 hours, FIG. 42
[10] = tested on: HepG2 cells; assay: MTT proliferation, substituted amino acids of EM3 (FIGS. 39, 40); format: cell-based; conditions: DMEM 2.5% FBS 48 hours, FIG. 40 legend
Method: FIGS. 39 and 40 show the effect of the substituted amino acids of EM3 on cell proliferation, and the present inventors have designed various peptide inhibitors replaced with other amino acids. The cells were cultured in DMEM containing 2.5% FBS for 48 hours and cell proliferation was measured by MTT assay.

[11] = tested on: HepG2; assay: MTT proliferation, FBS-stimulated (FIG. 38); format: cell-based; conditions: pretreated one hour, 2% FBS 48 hours
Method: (§3) The MTT assay was performed to measure the proliferation of various cancer cell lines, such as HEK293T, LN18 glioma, HepG2 liver cancer, HT29 colon cancer, 4T1 mouse breast cancer, and RAW264.7 mouse macrophages.

[12] = tested on: HEK293T; assay: MTT proliferation, FBS-stimulated (FIG. 38); format: cell-based; conditions: pretreated one hour, 2% FBS 48 hours
Method: as §3

[13] = tested on: LN18; assay: MTT proliferation, FBS-stimulated (FIG. 38); format: cell-based; conditions: pretreated one hour, 2% FBS 48 hours
Method: as §3

[14] = tested on: HT29; assay: MTT proliferation, FBS-stimulated (FIG. 38); format: cell-based; conditions: pretreated one hour, 2% FBS 48 hours
Method: as §3

[15] = tested on: 4T1; assay: MTT proliferation, FBS-stimulated (FIG. 38); format: cell-based, mouse; conditions: pretreated one hour, 2% FBS 48 hours
Method: as §3

[16] = tested on: RAW264.7 cells; assay: MTT proliferation, FBS-stimulated (FIG. 38); format: cell-based, mouse; conditions: pretreated one hour, 2% FBS 48 hours
Method: as §3

[17] = tested on: 4T1 cells; assay: Xenotransplantation experiment with 4T1 cells in BALB/c mice; format: in vivo; conditions: EM3 2.5 mM, 10 μL/mouse daily
Method: Animal care and experiments were performed by the approval of the Institutional Animal Care and Use Committee (HIRB-2016-52) of Hallym University. Male BALB/c mice (7 weeks old) were injected with 4T1 cells (5×10^5 cells in […] of 1×PBS), and randomly assigned to an EM3 treatment group (7 mice) or the control group (6 mice). The normal group also included two non-tumor mice. Cells were injected subcutaneously and EM3 (2.5 mM, 10 μL/mouse) and 1× PBS (10 μL/mouse) were applied daily. Tumor volume was measured daily and tumor weight and spleen size were measured after sacrificing the mice.

With `C[C@@H](N)[C@H]1CC[C@H](C(=O)Nc2ccncc2)CC1` [Y27632] the “Wnt3A-increased expression of cyclin D1 and c-Myc” value [1] was “abolished this increased expression”, the “Wnt3A-mediated proliferation in RAW264.7” value [2] was “inhibited” and the “proliferation of HEK293T cells by Wnt3A” value [3] was “abolished”.

In the case of `CC(C)[C@H](NC(=O)[C@H](Cc1ccc(O)cc1)NC(=O)[C@@H](N)CC(N)=O)C(=O)N[C@@H](C)C(N)=O` [PR2] (H-NYVA-NH2), the “proliferation of HEK293T cells by LPS” value [4] is reported as “significantly inhibited”, the “proliferation of HEK293T cells by Wnt3A” value [4] is reported as “significantly inhibited” and the “proliferation of HEk293T cells by H2O2” value [4] is reported as “significantly inhibited”. The “proliferation of HepG2 cells by insulin” value [5] was “significantly inhibited”, the “proliferation of LN18 cells by EGF” value [6] was “significantly inhibited” and the “proliferation of A549 cells by PMA” value [7] was “significantly inhibited”. For the same compound, the “co-immunoprecipitation of p-Tyr42 RhoA and β-catenin” value [8] was “inhibited”.

In the case of `CC(C)[C@H](NC(=O)[C@H](Cc1ccc(OP(=O)(O)O)cc1)NC(=O)[C@@H](N)CC(N)=O)C(=O)N[C@@H](C)C(N)=O` [PR3] (H-N[pY]VA-NH2), the “proliferation of HEK293T cells by LPS” value [4] is reported as “significantly inhibited”, the “proliferation of HEK293T cells by Wnt3A” value [4] is reported as “significantly inhibited” and the “proliferation of HEk293T cells by H2O2” value [4] is reported as “significantly inhibited”. For the same compound, the “proliferation of HepG2 cells by insulin” value [5] was “significantly inhibited”, the “proliferation of LN18 cells by EGF” value [6] was “significantly inhibited” and the “proliferation of A549 cells by PMA” value [7] was “significantly inhibited”. For the same compound, the “co-immunoprecipitation of p-Tyr42 RhoA and β-catenin” value [8] was “inhibited” and the “migration of HEK293 cells in response to Wnt3A” value (shortened to “migration of HEK293 cells”) [9] was “reducing the migration”.

With NYVS [HL4] the “inhibitory effect on HepG2 cell proliferation, compared with EM3” value (“inhibitory effect … compared with EM3” for short) [10] was “less effective than EM3”.

With `CC[C@H](C)C(NC(=O)[C@H](CC(=O)O)NC(=O)[C@H](C)NC(=O)[C@@H](NC(=O)[C@H](Cc1ccc(O)cc1)NC(=O)[C@H](CC(N)=O)NC(=O)[C@H](CCC(=O)O)NC(=O)[C@H](Cc1ccccc1)NC(=O)[C@@H](NC(=O)[C@@H](NC(=O)CCCCC1SC[C@@H]2NC(=O)N[C@H]12)[C@@H](C)O)C(C)C)C(C)C)C(=O)N[C@@H](CCC(=O)O)C(=O)O` (stereo partly shown) [EM4] ({Biotinyl(4ξ)}-TVFENYVAD[ξIle]E-OH) the “migration of HEK293 cells” value [9] was “reducing the migration”.

NYVA-NH2 [EM3] was tested, and the “proliferation of FBS-stimulated HepG2 cells” value [11] was “significantly inhibited”, the “proliferation of FBS-stimulated HEK293T cells” value [12] was “significantly inhibited” and the “proliferation of FBS-stimulated LN18 cells” value [13] was “significantly inhibited”. The “proliferation of FBS-stimulated HT29 cells” value [14] was “significantly inhibited”, the “proliferation of FBS-stimulated 4T1 cells” value [15] was “significantly inhibited” and the “proliferation of FBS-stimulated RAW264.7 cells” value [16] was “significantly inhibited”. For the same compound, the tumor volume ([17]; 4T1 cells subcutaneous, FIG. 43A) was “dramatically decreased”, the tumor weight ([17]; 4T1 cells subcutaneous, after sacrifice, FIG. 43B) was “dramatically decreased” and the spleen size ([17]; 4T1 tumor, after sacrifice, FIG. 43C) was “same size compared to control mice”. The “co-immunoprecipitation of p-Tyr42 RhoA and β-catenin” value [8] was “inhibited” and the “migration of HEK293 cells” value [9] was “reducing the migration”.

For AYVA [HL1], the “inhibitory effect … compared with EM3” value [10] was “less effective than EM3”.

In the case of NYLA [HL5], the “inhibitory effect … compared with EM3” value [10] is reported as “less effective than EM3”.

With NFVA [HL7] the “inhibitory effect … compared with EM3” value [10] was “less effective than EM3”.

Reference: patent US20230086119A1, “ANTICANCER AGENT CONTAINING RHOA PEPTIDE INHIBITOR AS AN ACTIVE INGREDIENT” (EL MED, priority 2020, published 2023)
